Here are results for one compound from patent publication US6172112A, “Retinoids and use thereof” (priority 1999, dated 2001).

The inhibition is the change of the read-out against control, counted positive when it falls. In general, IC50 refers to the point on the concentration scale where inhibition reaches its midpoint. Read a high IC50 as weaker potency in that assay.

Data set [1] has as its system NB4 cells. The data set is described as follows: retinoid metabolism in NB4 cells. It counts as in vitro ADME.
For data set [2] the following is noted: cited from earlier work.
The subject of data set [3] is JMML cells. The data set is described as follows: inhibition of JMML spontaneous CFU-GM colony formation. Conditions: Homo sapiens.
Experimental: Mononuclear cells were separated by density gradient centrifugation, washed, and frozen in aliquots. […] No growth factors or other exogenous stimuli were added to the cultures. UAB retinoids and retinoic acid isomers were dissolved in either 100% ethanol or DMSO. Appropriate dilutions were made, and controls using the respective ethanol or DMSO concentration were set up in parallel. Varying doses of retinoids were added only once, 24 hours after initiation of the soft agar assays, by pipetting the retinoid solution on top of the soft agar and allowing the solution to enter the agar and interact with the cells by diffusion. The cultures were incubated for 14 days at 37° C. in a humidified atmosphere with 5% CO2.
In data set [4] the target is T1, RARα (Homo sapiens, UniProt P10276).
T1 sequence (P10276 1-462): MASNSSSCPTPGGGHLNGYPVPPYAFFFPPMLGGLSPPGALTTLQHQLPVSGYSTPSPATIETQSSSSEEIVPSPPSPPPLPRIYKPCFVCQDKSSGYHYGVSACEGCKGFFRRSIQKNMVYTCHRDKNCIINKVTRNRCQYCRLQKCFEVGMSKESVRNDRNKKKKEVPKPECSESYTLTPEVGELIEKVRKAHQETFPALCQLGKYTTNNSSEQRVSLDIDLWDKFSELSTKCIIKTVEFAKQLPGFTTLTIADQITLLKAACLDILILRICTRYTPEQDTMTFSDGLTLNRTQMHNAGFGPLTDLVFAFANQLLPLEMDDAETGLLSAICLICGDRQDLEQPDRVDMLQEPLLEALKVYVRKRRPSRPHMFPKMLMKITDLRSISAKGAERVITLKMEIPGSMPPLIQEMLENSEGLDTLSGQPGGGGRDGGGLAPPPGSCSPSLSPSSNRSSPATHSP
The data set is described as follows: nuclear receptor radiolabeled competition binding, RARα. As to the method:
(§1) For active retinoids, IC50 values were determined by titration with varying concentrations of UAB retinoids.

In data set [5] the target is T1, RARα. The data set is described as follows: cell-based. On the procedure: (§2) These assays were performed in CV-1 cells with the RAR or RXR gene and the chloramphenicol acetyltransferase (CAT) reporter gene containing TREpal with a thymidine kinase promoter [(TREpal)2 -tk-CAT]. Twenty-four hours after transfection, cells were treated with a single dose of retinoid and the cell extracts were assayed for b-galactosidase and CAT activity. The antagonistic effects of UAB30 retinoids on the transcription of RAR-α were also determined in CV-1 cells. The methods are nearly identical to those used to perform transcriptional assays. These studies utilized the CAT reporter gene [(TREpal)2 -tk-CAT]. […] After 24 hours, cells were harvested and the transcriptional effects were measured in relative CAT activity, after correction with β-galactosidase activity for transfection efficiency. […] Experiments were performed in triplicate and the data were averaged.
UAB30 isomers were evaluated in assays which measures their functional activity within cells to induce RARα-, RARβ-, and RARγ-mediated transcriptional activity. CV-1 cells were transiently transfected with DNA plasmid from the appropriate RAR subtype and (TREpal)2 -tk-CAT (9, 19).

For data set [6], the target named is RXRα (Homo sapiens, UniProt P19793). The data set is described as follows: RXRα homodimer-mediated transcriptional activation in CV-1 cells. It counts as cell-based. As to the method: as §2
Data set [7] concerns the target T2, RARγ (Homo sapiens, UniProt P13631).
T2 sequence (P13631 1-454): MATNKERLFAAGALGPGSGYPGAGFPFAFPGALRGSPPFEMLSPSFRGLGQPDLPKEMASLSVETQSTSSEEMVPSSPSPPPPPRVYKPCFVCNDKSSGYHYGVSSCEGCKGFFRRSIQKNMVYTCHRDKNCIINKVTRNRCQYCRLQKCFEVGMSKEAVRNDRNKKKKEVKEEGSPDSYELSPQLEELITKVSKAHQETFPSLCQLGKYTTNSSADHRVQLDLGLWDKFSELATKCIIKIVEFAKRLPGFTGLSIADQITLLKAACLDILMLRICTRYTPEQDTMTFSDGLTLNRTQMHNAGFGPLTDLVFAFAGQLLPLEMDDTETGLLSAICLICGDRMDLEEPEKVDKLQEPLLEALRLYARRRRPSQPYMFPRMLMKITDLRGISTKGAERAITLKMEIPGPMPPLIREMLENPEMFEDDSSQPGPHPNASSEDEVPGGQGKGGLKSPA
The data set is described as follows: nuclear receptor radiolabeled competition binding, RARγ. As to the method: as §1

Data set [8] relates to NB4 cells. The data set is described as follows: retinoid induction of differentiation of NB4 cells (NBT). It counts as cell-based, Human. The following applies: read-out: ED30 NB4 cell differentiation. As to the method: NB4 cells were obtained from Dr. Waxman after he received them from Dr. M. Lanotte. […] The cell were grown at 37° C. in a humidified atmosphere of 5% CO2 in air. Cell density was estimated on an electronic particle counter (Coulter electronic, Hialeah, Fla.) and cell viability with trypan bleu dye exclusion.
(§3) Human leukemia cell line HL-60 and NB4 were used for measuring the ability of retinoids to induce terminal differentiation. Both cell lines are predominantly promyelocytes and are induced by retinoic acid to mature to cells with many characteristics of mature granulocytes. The induction of this differentiation is the basis for assaying one of the biological activities of retinoic acid analogues. For the differentiation assay, HL-60 or NB4 cells were grown in nutrient medium with fetal bovine serum as detailed by Breitman (15).
(§4) The percentage of cells that gained this marker was measured microscopically. The percentage of positive cells was then plotted as a function of the retinoid concentration to determine ED50 and ED30 values used in the formation of isoboles.

Data set [9] relates to HL-60 cells. The data set is described as follows: retinoid induction of differentiation of HL-60 cells (NBT). In kind it is cell-based. The following applies: Homo sapiens, HL-60, 96 h; 4-day induction of differentiation; read-out: ED50 (nM) HL-60. On the procedure:
as §3, §4

Where two headings read alike, the source gives them in different places.

Chain of RXRα (P19793 whole entry): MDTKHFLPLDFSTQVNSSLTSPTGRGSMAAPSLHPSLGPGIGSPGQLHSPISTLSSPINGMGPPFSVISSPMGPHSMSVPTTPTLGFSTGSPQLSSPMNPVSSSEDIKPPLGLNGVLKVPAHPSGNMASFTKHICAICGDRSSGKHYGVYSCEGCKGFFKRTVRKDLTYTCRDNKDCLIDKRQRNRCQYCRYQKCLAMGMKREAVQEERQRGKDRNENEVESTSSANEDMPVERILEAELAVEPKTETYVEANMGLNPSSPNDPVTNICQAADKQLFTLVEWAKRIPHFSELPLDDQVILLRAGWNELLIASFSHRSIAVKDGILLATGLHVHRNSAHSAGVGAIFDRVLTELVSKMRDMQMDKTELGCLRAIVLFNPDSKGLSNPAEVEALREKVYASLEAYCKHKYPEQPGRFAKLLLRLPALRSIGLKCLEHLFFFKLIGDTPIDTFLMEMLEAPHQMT

As to `CCC1=C(C(C)C)/C(=C/C(C)=C/C=C/C(C)=C/C(=O)O)CCC1` [(all-E)-UAB8], in data set [1], the “metabolism / metabolic stability” value was “metabolized at the same rate as ATRA”. In data set [2], the “in vivo toxicity” value was “less toxic than ATRA”. The inhibition at 1 µM in data set [3] (read-out: normalized percent inhibition of CFU-GM colony growth, patient J43 (%)) is 98%; in data set [3] (read-out: normalized percent inhibition of CFU-GM colony growth, patient J84 (%)), 103%. Besides, the IC50 in data set [4] worked out at 14 nM; in [7] it was 10 nM. The EC50 in data set [5] was 33 nM; in data set [6], greater than 2000 nM; in data set [9], greater than 10000 nM. The EC30 amounted to 25 nM in data set [8] (in combination with 9-cis-UAB8 (FIG. 8B)) and 110 nM in [8] (retinoid alone, 3 days).
